The values that follow are results of earlier work, collected in PMC4503980 (Scientific Reports, 2015).

The subject of one series is neurons. Further details: method as in PMID 21102461. The settings on record: cited from earlier work.
Another series deals with PSD-95/SynGAP. Further details: method as in PMID 21102461. The settings on record: cited from earlier work.
Another series concerns PSD-95/GluN2B. On the set-up: method as in PMID 21102461. The settings on record: cited from earlier work.
For the next series, the system named is nNOS/CAPON. Further details: method as in PMID 21102461. To be noted: cited from earlier work.
In series [1] the test system is nNOS/PSD-95 interaction. Further details: method as in PMID 21102461. To be noted: extracts from glutamate- or ischemia-induced cultured neurons and cortical brain; cited from earlier work.
Series [2] concerns animal ischemic stroke models. Further details: method as in PMID 21102461. The settings on record: not when the nNOS gene was knocked out; cited from earlier work.
Another series relates to NMDA receptor. Further details: method as in PMID 21102461. The settings on record: cited from earlier work.
Series [3] relates to nNOS. On the set-up: method as in PMID 21102461. To be noted: cited from earlier work.
In series [4] the test system is nNOS. Further details: method as in PMID 21102461. To be noted: cited from earlier work. This is another data set of the same source.
Series [5] relates to nNOS/PSD-95 interaction. On the set-up: method as in PMID 19732061. To be noted: cited from earlier work.
Series [6] relates to NMDA-induced 3′,5′-cyclic guanosine monophosphate (cGMP) production. Further details: method as in PMID 19732061. To be noted: hippocampal cultures; cited from earlier work.
Series [7] relates to 34 targets in a panel of receptors, ion channels, and transporters. On the set-up: method as in PMID 19732061. The settings on record: cited from earlier work.
The next series concerns PSD-95/cypin-interaction. Further details: method as in PMID 19732061. The settings on record: cited from earlier work.

Turning to `O=C(O)c1ccc(NCc2cc(Cl)cc(Cl)c2O)cc1O` [ZL006, 4-((3,5-Dichloro-2-hydroxybenzyl)amino)-2-hydroxybenzoic acid], the “neuroprotective properties in neurons” value with neurons is given as “robust neuroprotective properties”. Also, in the series on PSD-95/SynGAP, the “inhibition of PSD-95/SynGAP” value is reported as “not inhibited”. For the same compound, the “inhibition of PSD-95/GluN2B” value in the series with PSD-95/GluN2B is reported as “not inhibited”. Besides, in the series on nNOS/CAPON, the “inhibition of nNOS/CAPON” value is recorded as “not inhibited”. In addition, the “inhibition of nNOS/PSD-95 interaction (co-immunoprecipitation)” value with nNOS/PSD-95 interaction [1] was “inhibit”. Moreover, the “neuroprotective properties in animal ischemic stroke models” value in series [2] is recorded as “robust neuroprotective properties”. Also, the “effect on NMDA receptor function (ion flux)” value with NMDA receptor is on record as “did not affect”. For the same compound, the “effect on nNOS catalytic activity” value in the series on nNOS [3] is given as “did not affect”. In the series with nNOS [4], the “effect on nNOS expression” value is recorded as “did not affect”.

Consider `Oc1c(Cl)cc(Cl)cc1CNc1ccc2[nH]nnc2c1` [IC87201, 2-((1H-Benzo[d][1–3]triazol-5-ylamino)methyl)-4-6-dichlorophenol], for which the “disruption of nNOS/PSD-95 interaction in vitro” value in the series on nNOS/PSD-95 interaction [5] is “disrupt”. Besides, in series [6], the “NMDA-induced cGMP production” value is “blocked”. In series [7], the “effect on 34 targets in a panel of receptors, ion channels, and transporters” value is “did not affect”. The “effect on PSD-95/cypin-interaction” value in the series on PSD-95/cypin-interaction is “did not affect”.
